Source: US20130303377A1, “USE OF SINGLE AMINO ACIDS AT LOW CONCENTRATIONS FOR INFLUENCING THE LIFE PROCESSES OF CROPS” (GLOBACHEM, priority 2010, published 2013)

Assays:
[1] = system: mature apple trees of the variety Jonagold (mutant King); experiment: Improvement of the coloring with apple, Example 1 (glutamine sprayed before picking); type: in vivo; conditions: for kg 1st picking: colored fruits; for Fruit weight: average over the total harvest
Method: This experiment was performed on mature apple trees of the variety Jonagold (mutant King). The sprayings were performed with an atomizer at 300 liter of water/ha. The spray liquid used contained in the first test 300 ppm wt of glutamine and in the second test with a multiple treatment each time 150 ppm wt glutamine. The spray liquid further contained surfactants and a UV filter.
apples of the trees in the test field were harvested in 3 times. Glutamine was used as active substance, in a first test 2 weeks before the expected first picking date, and in the second test first 2 weeks and then again 1 week before the expected harvest date. The dosages used are shown below. At harvest, the total yield, the kilos colored fruits which could be harvested in the first picking and the average fruit weight over the total harvest (in grams per apple fruit) were determined. The results are shown in Table 1, and compared with a control without treatment.

[2] = system: Jonagold; experiment: Improvement of the coloring with apple, Example 2; type: in vivo
Method: In an experiment similar to Example 1, glutamine was used 2 times on Jonagold, the first time 14 days before the picking and then a few days before the picking. The dosage of the treatment was this time 2 times 15 g/ha (each time with a concentration of 50 ppm wt in an atomisation of each time 300 liter of water per hectare). The % first picking was determined and is shown in Table 2, in comparison with a control test without treatment.

[3] = system: mature apple trees of the variety Jonagold, Jonagored mutant; experiment: Increase of both the yield and the coloring with apple, Example 3; type: in vivo
Method: This experiment was performed on mature apple trees of the variety Jonagold, Jonagored mutant. Unlike the two previous trials, the focus here is primarily on increasing the yield. To achieve this, the treatments have to be started much earlier in the season. The dose is hereby lower than in the two previous applications because the goal is here fruit set and growth inhibition, instead of coloring. One could suffice with two treatments, at the start of the growing season, but several applications over the entire growing season gives a more certain result. The applications in this test were started around the end of flowering and were repeated every 7 to 14 days, depending on the weather conditions. There were in total 7 treatments, more precisely on April 24, May 7, May 14, May 20, June 9, June 16 and June 24. The sprayings were performed with an atomiser.
Glutamine, each time at a concentration of 50 ppm wt in 300 liter water/ha, and thus a dose of 15 g/ha, was applied both separately and in combination with S-abscisic acid (ABA). In the combination test, ABA was administered at the first 2 sprayings of the season, and always at a concentration of 3.3 ppm in 300 l water/ha spraying liquid, which corresponds to a dosage of 1.0 g/ha of ABA. At the end of the season, the extension of the shoots was measured and the number of fruits per tree determined. Shortly after the end of the sprayings, on June 25, the average fruit diameter was also determined.

[4] = system: Jonagored; experiment: Improvement of the coloring with apple, Example 4; type: in vivo; conditions: glutamine 2.5 g/ha, 4 days before the pick
Text: In this experiment, glutamine was applied 4 days before the pick on a plot of Jonagored, and in a concentration of 8.3 ppm wt in 300 l/ha, which is equivalent to a dose of 2.5 g/ha of glutamine. In table 4 below the % of first picking is shown.

[5] = system: wheat seedlings; experiment: Growth inhibition with wheat; type: in vivo; conditions: for Growth increase (cm): one treatment; for Growth increase (cm) / % wrt control: after 10 days; for % wrt control: growth increase
Method: (§1) This experiment was performed in four repetitions on wheat seedlings. Per repetition six seedlings were sown in a jar and monitored. When the seedlings were about 15 cm high, they were treated once with the following treatments, and after 10 days the growth increase was measured. The dose is given in g/ha whereby the conversion from the concentration was done with a use of 300 l/ha.

[6] = system: plants; experiment: Strength of the response to one single amino acid as a function of dosage; type: in vivo; conditions: compared to the intermediate range of 5-15 g/ha
Text: The location of the peaks of the pattern, i.e. at which concentrations the strongest effects could be recorded, and the location of the valley between two peaks, i.e. the range wherein the response was again a little less, appeared however to depend on the choice of the amino acid and of the life process which one wishes to influence.

[7] = system: barley seedlings; experiment: Growth inhibition with barley; type: in vivo; conditions: 250 g/ha, after 8 days
Method: as §1, with “on barley” for “on wheat”, “Per repetition,” for “Per repetition”, “after 8” for “after 10”, “done at” for “done with”, “300 I/ha.” for “300 l/ha.”

[8] = system: plants; conditions: 500 ppm of glutamic acid; EP 1124419; cited from earlier work
[9] = system: plants; conditions: only glutamic acid; WO 00/25582; cited from earlier work
[10] = glutamine 2 × 45 g/ha, 2 weeks and 1 week before expected harvest date
[11] = glutamine 90 g/ha once, 2 weeks before expected first picking

**Q.** What does the source list for `NC(=O)CC[C@H](N)C(=O)O` [Glutamine, glutamine]?
**A.** Difference of first picking versus control ([1]; dual treatment (2 × 45 g/ha)): 3 kg; Difference of first picking versus control (% of total harvest) ([1]; dual treatment (2 × 45 g/ha)): 10%; 1st picking in % of the total harvest [1, 10]: 46%; kg (total harvest) [1, 10]: 39 kg; kg 1st picking [1, 10]: 18 kg; Fruit weight ([1]; glutamine 2 × 45 g/ha): 257 g; 1st picking in % of the total harvest [1, 11]: 41%; kg (total harvest) [1, 11]: 39 kg; kg 1st picking [1, 11]: 16 kg; Fruit weight ([1]; glutamine 90 g/ha once): 248 g; Increase of first picking versus control ([1]; single treatment (90 g/ha)): 1 kg; Increase of first picking versus control (% of total harvest) ([1]; single treatment (90 g/ha)): 5%; Increase in the first picking, absolute percentage with respect to weight of total harvest ([2]; double treatment of glutamine, versus control): around 10%; Increase of the first-picking portion of the harvest ([2]; extrapolated at a Jonagold yield of 60 tons/ha): at least 6 tons/ha; % 1st picking ([2]; glutamine 2 × 15 g/ha, 14 days and a few days before the picking): 40%; Average Shoot length (cm) ([3]; end of season, glutamine 15 g/ha, 7 treatments): 25.6 cm; Fruit diameter (mm) on June 25 ([3]; glutamine 15 g/ha, 7 treatments): 43.7 mm; Increase of fruits per tree versus control ([3]; glutamine alone, 15 g/ha, 7 treatments): 14 fruits per tree; Increased yield ([3]; glutamine alone, extrapolated at 1714 trees/ha and five apples per kilo): ~5000 kg/ha; Number of fruits ([3]; per tree, glutamine 15 g/ha, 7 treatments from end of flowering): 127; % 1st picking [4]: 55.8%

**Q.** Which results are given for `N[C@@H](Cc1c[nH]cn1)C(=O)O` [Histidine, histidine]?
**A.** Growth increase (cm) ([5]; 2 g/ha): 10.0 cm; Growth increase (cm) ([5]; 100 g/ha): 10.2 cm; Strength of the growth inhibitory response ([5]; further experiments with only histidine, about 10 g/ha): less than in the tests with the lower (2 g/ha) and higher (100 g/ha) dosages; % wrt control ([5]; 2 g/ha): 92%; % wrt control ([5]; 100 g/ha): 94%; Strength of the response as a function of dosage [6]: higher response in the range of 0.5-5 g/ha and in a range of 15-250 g/ha

**Q.** For `CC(C)(C)C(O)(CCc1ccc(Cl)cc1)Cn1cncn1` (stereo not drawn) [Tebuconazole, tebuconazole], which “Growth increase (cm)” value ([7]; one treatment) is on record?
**A.** The value was 3.2 cm.

**Q.** What about the “% wrt control” value ([7]; growth increase) of the same compound?
**A.** Its value is 45%.

**Q.** Which “Growth increase (cm)” value ([5]; 250 g/ha) does the source give for `CCOC(=O)C1CC(=O)C(=C(O)C2CC2)C(=O)C1` (stereo not drawn) [Trinexapac-ethyl, trinexapac-ethyl, reference compound] here?
**A.** Its value is 7.8 cm.

**Q.** What about the “% wrt control” value ([5]; 250 g/ha) of the same compound?
**A.** Its value is 72%.

**Q.** Which “Effect on productivity of plants” value [8] does the source give for `N[C@@H](CCC(=O)O)C(=O)O` [glutamic acid] here?
**A.** The value was “only a small effect”.

**Q.** And the “Yield of plants versus control test” value [9]?
**A.** The value was “did not yield any significant improvement”.
